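How tested: cells in 96-well plates exposed to compound for 48 hours at five concentrations. The concentration for 50% growth inhibition is given as GI50.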 Activity calls are given as the source filed them. Rule as the data show it: active = GI50 up to about 1.1 µM and inactive = higher.
What was measured:
Assay in all cases: NCI anticancer screen, dose series, 48 h
ACHN = system: ACHN
CAKI-1 = system: CAKI-1
DLD-1 = system: DLD-1
DU-145 = system: DU-145
IGROV-1 = system: IGROV-1
LOX IMVI = system: LOX IMVI
MDA-N = system: MDA-N
Malme-3M = system: Malme-3M
NCI-H226 = system: NCI-H226
NCI-H460 = system: NCI-H460
OVCAR-5 = system: OVCAR-5
OVCAR-8 = system: OVCAR-8
SF-295 = system: SF-295
SF-539 = system: SF-539
SK-MEL-28 = system: SK-MEL-28
SK-MEL-2 = system: SK-MEL-2
SN12C = system: SN12C
SNB-19 = system: SNB-19
SNB-78 = system: SNB-78
U-251 = system: U-251

Measured: GI50

CCCCCCCCCCCC(=O)OC[C@@H](C[As](=O)(O)O)OC(=O)CCCCCCCCCCC
inactive: ACHN 3.01 µM | CAKI-1 11.1 µM | DLD-1 18 µM | DU-145 18.1 µM | IGROV-1 1.85 µM | LOX IMVI 4.24 µM | MDA-N 4.29 µM | Malme-3M 3.41 µM | NCI-H226 16.4 µM | NCI-H460 3.61 µM | OVCAR-5 16.3 µM | OVCAR-8 9.98 µM | SF-295 13.2 µM | SF-539 12.6 µM | SK-MEL-28 4.54 µM | SK-MEL-2 2.69 µM | SN12C 7 µM | SNB-19 3.07 µM | SNB-78 3.39 µM | U-251 2.14 µM

CN(C=O)/C=C/c1cc(O)ccc1O
inactive: ACHN 16.1 µM | CAKI-1 20.3 µM | DLD-1 20 µM | DU-145 33.4 µM | IGROV-1 51.3 µM | LOX IMVI 23.2 µM | Malme-3M 39.4 µM | NCI-H226 39.7 µM | NCI-H460 > 60.7 µM | OVCAR-5 40.6 µM | OVCAR-8 30.3 µM | SF-295 32.5 µM | SF-539 38.3 µM | SK-MEL-28 > 42.1 µM | SK-MEL-2 35.6 µM | SN12C 20.9 µM | SNB-19 > 72.8 µM | SNB-78 30.8 µM | U-251 39.6 µM

CC(C)(C)OC(=O)c1cccnc1/C=N/O
inactive: ACHN 24 µM | CAKI-1 > 100 µM | DLD-1 > 100 µM | IGROV-1 > 100 µM | LOX IMVI > 100 µM | Malme-3M > 100 µM | NCI-H226 > 100 µM | NCI-H460 48.4 µM | OVCAR-5 > 100 µM | OVCAR-8 > 100 µM | SF-295 78.7 µM | SF-539 > 100 µM | SK-MEL-28 > 100 µM | SK-MEL-2 > 100 µM | SN12C > 100 µM | SNB-19 > 100 µM | SNB-78 > 100 µM | U-251 > 100 µM

CCOC(=O)C1=C(c2ccccc2)NC(c2ccccc2)=C(C(=O)OCC)c2c1c(=O)cc[nH]c2=O
inactive: ACHN 72.8 µM | CAKI-1 > 100 µM | DLD-1 > 100 µM | IGROV-1 > 100 µM | LOX IMVI 62.1 µM | Malme-3M > 100 µM | NCI-H226 > 100 µM | NCI-H460 > 100 µM | OVCAR-5 > 100 µM | OVCAR-8 > 100 µM | SF-295 86.7 µM | SF-539 > 100 µM | SK-MEL-28 66.1 µM | SK-MEL-2 > 100 µM | SN12C > 100 µM | SNB-19 > 100 µM | SNB-78 94 µM | U-251 > 100 µM

COC(=O)c1cccc2cccc(C(=O)Nc3ccc(C)cc3C)c12
inactive: ACHN 67.1 µM | CAKI-1 > 100 µM | DLD-1 > 100 µM | IGROV-1 > 100 µM | LOX IMVI > 100 µM | Malme-3M > 100 µM | NCI-H226 > 100 µM | NCI-H460 > 100 µM | OVCAR-5 > 100 µM | OVCAR-8 > 100 µM | SF-295 > 100 µM | SF-539 96.4 µM | SK-MEL-28 > 100 µM | SK-MEL-2 > 100 µM | SN12C > 100 µM | SNB-19 > 100 µM | SNB-78 > 100 µM | U-251 > 100 µM

O=c1cc(-c2cccnc2)[nH]c2cc3c(cc12)OCO3
inactive: ACHN 13.6 µM | DLD-1 4.03 µM | DU-145 33 µM | IGROV-1 4.47 µM | LOX IMVI 4.67 µM | MDA-N 2.29 µM | Malme-3M 3.15 µM | NCI-H226 18.8 µM | NCI-H460 10.8 µM | OVCAR-5 > 100 µM | OVCAR-8 12.9 µM | SF-295 11.1 µM | SF-539 5.58 µM | SK-MEL-28 6.18 µM | SK-MEL-2 8.04 µM | SN12C 12.2 µM | SNB-19 13 µM | SNB-78 27.7 µM | U-251 4.16 µM

CCCCCCC(O)C/C=C/CCCCCC/C(C(=O)OC)=C(/O)C(=O)OCC (stereo not given)
inactive: ACHN > 100 µM | CAKI-1 > 100 µM | DLD-1 > 100 µM | IGROV-1 > 100 µM | LOX IMVI > 100 µM | Malme-3M > 100 µM | NCI-H226 > 100 µM | NCI-H460 > 100 µM | OVCAR-5 > 100 µM | OVCAR-8 > 100 µM | SF-295 > 100 µM | SF-539 > 100 µM | SK-MEL-28 > 100 µM | SK-MEL-2 > 100 µM | SN12C > 100 µM | SNB-19 > 100 µM | SNB-78 > 100 µM | U-251 > 100 µM

N#CC(C#N)=C(N)/C(C#N)=C/c1cc(O)c(O)c(Br)c1
inactive: ACHN 77.1 µM | CAKI-1 > 100 µM | DLD-1 55.6 µM | DU-145 97.5 µM | IGROV-1 > 65.2 µM | LOX IMVI 42 µM | MDA-N 99.5 µM | Malme-3M 85.7 µM | NCI-H226 21.1 µM | NCI-H460 38.1 µM | OVCAR-5 > 43.6 µM | OVCAR-8 48.1 µM | SF-295 > 82 µM | SF-539 44.1 µM | SK-MEL-28 > 100 µM | SK-MEL-2 90.6 µM | SN12C > 69.3 µM | SNB-19 > 67.3 µM | SNB-78 75.7 µM | U-251 53 µM
